In experiment [1] the test system is hypertensive and hyperglycemic patients. Nature of the experiment: Retrospective analysis of blood HbA1c in hypertensive and hyperglycemic patients. The experiment is classed as in vivo, human. Conditions: patients administered cilnidipine compared with patients administered amlodipine, FIG. 7. The procedure: Effects of cilnidipine on intractable disease were examined. The results shown in this Exemplary Experiment were obtained from retrospective analyses on patients in Kyushu University Hospital. In this Exemplary Experiment, percentages of blood HbA1c in hypertensive and hyperglycemic patients administered amlodipine, and in hypertensive and hyperglycemic patients administered cilnidipine, were evaluated.

In experiment [2] the test system is SOD1-G93A mice (ALS model). In words: Survival of ALS model mice (SOD1-G93A) with cilnidipine administration. The class given is in vivo. Particulars: osmotic pump 5,000 μg/kg intraperitoneally implanted after onset of ALS, 28 days, FIG. 4(b). The procedure:
Effects of cilnidipine on intractable disease were examined. In this Exemplary Experiment, cilnidipine was administered to model mice of amyotrophic lateral sclerosis (ALS), and survival rate was examined. The ALS model mice employed were SOD1-G93A mice.
FIG. 4(a) is a drawing that illustrates an experiment schedule. An osmotic pump containing 5,000 μg/kg of cilnidipine was intraperitoneally implanted into each model mouse after onset of ALS, the drug was administered continuously over 28 days, and the survival rate was measured.

Experiment [3] has as its system H9c2 cell overexpressing A1545T mutant of filamin A gene fused with mCherry tag. In words: Mitochondrial division promoted by overexpressed A1545T mutant of filamin A in H9c2 cells. The experiment is classed as cell-based, murine. Conditions: Exemplary Experiment 9, 1 μM, 24 hours, FIG. 9(b). The text has this:
A disease called filamin cardiomyopathy has been known to involve A1539T mutation (substitution of adenine at position 1539 to thymine) on filamin-C gene. Then influence of A1545T mutant of filamin A gene, similar to A1539T mutant of filamin-C gene, on the shape of mitochondria of myocardial cell was examined.
(§1) An expression vector of wild type filamin A gene fused with mCherry tag, or, an expression vector of A1545T mutant of filamin A gene fused with mCherry tag was transduced into H9c2 cell, which is a murine heart striated muscle cell line, and allowed to overexpress. Also a group, having an expression vector of mCherry transduced and allowed to overexpress therein, was prepared for comparison.
(§2) The cells were cultured for 24 hours, cilnidipine or NS4-238 was added to the culture medium while adjusting the final concentration to 1 μM, and the cells were further cultured for 24 hours. Also a group having DMSO added thereto in place of the drugs was prepared for comparison.
(§3) The cells were then stained in the same way as described in Exemplary Experiment 1 using MitoTracker Green FM (from Thermo Fischer Scientific Inc.). The cells were observed under a fluorescent microscope, and the shape of mitochondria was quantified by image analysis.

For experiment [4], the system named is myocardial cells from neonatal rat. In words: Aging of myocardial cell (p53 accumulation) under hypoxic-reoxygenation stimulation. Particulars: Exemplary Experiment 10, 1 μM, hypoxic (1%) 18 hours then normoxic (21%) 18 hours, FIG. 10. The experiment is classed as cell-based. The procedure: How the cilnidipine derivatives, synthesized in Exemplary Experiment 7, can affect aging of myocardial cell was examined. Aging of myocardial cell was evaluated on the basis of accumulation of p53 protein. More specifically, each of cilnidipine, and the individual compounds namely NS4-019, NS4-021 and NS4-043, synthesized in Exemplary Experiment 7, was added to a culture medium of the myocardial cells from neonatal rat, so as to adjust the final concentration to 1 μM, and the cells were incubated for one hour. The cells were then subjected to hypoxic-reoxygenation stimulation, by cultivation under hypoxic (1%) environment for 18 hours, followed by cultivation under normoxic (21%) environment for 18 hours. The cells in each culture were then fixed with 4% paraformaldehyde, and immunostained with anti-p53 antibody and anti-α-actinin antibody. α-Actinin is a marker of myocardial cell. The cells in each culture were observed under a fluorescent microscope, and percentage of p53 accumulating cells relative to the α-actinin-positive cells was determined.

Experiment [5] concerns H9c2 cell overexpressing wild type filamin A gene fused with mCherry tag. Nature of the experiment: Mitochondrial division promoted by overexpressed wild type filamin A in H9c2 cells. The class given is cell-based, murine. Particulars: Exemplary Experiment 9, 1 μM, 24 hours, FIG. 9(b). The procedure:
as §1, §2, §3

For experiment [6], the system named is model mice of inflammatory bowel disease (DSS). In words: Survival of DSS-induced inflammatory bowel disease model mice. The experiment is classed as in vivo. Particulars: osmotic pump 25,000 μg/kg, 17 days, 3% DSS, FIG. 5(b). The procedure: Effects of cilnidipine on intractable disease were examined. In this Exemplary Experiment, cilnidipine was administered to model mice of inflammatory bowel disease, and survival rate was examined. The model mice of inflammatory bowel disease employed were mice on which inflammatory bowel disease is inducible by administrating dextran sulfate (DSS).
FIG. 5(a) is a drawing that illustrates an experiment schedule. From three days before the administrating DSS started, an osmotic pump containing 25,000 μg/kg of cilnidipine was intraperitoneally implanted into each mouse, the drug was administered continuously over 17 days, and the survival rate was measured.
From the first day (Day 0) the cilnidipine administration started, the mice were fed tap water containing 3% DSS as a drinking water for seven days. Over a period between Day 7 after the start of cilnidipine administration to Day 14, the drinking water was reverted to ordinary tap water. Also a control group was prepared, in which the mice were fed a solvent only in place of cilnidipine.

In experiment [7] the test system is model mice of type 1/2 diabetes (STZ). In words: Blood sugar level in streptozotocin model mice of type 1/2 diabetes. The class given is in vivo. Particulars: STZ 200 mg/kg mice, osmotic pump 5,000 μg/kg from 14th day, FIG. 6. On the procedure:
Effects of cilnidipine on intractable disease were examined. In this Exemplary Experiment, cilnidipine was administered to model mice of type 1/2 diabetes, and the blood sugar level was measured over time. The model mice of type 1/2 diabetes employed were mice intraperitoneally administered 200 mg/kg of streptozotocin (STZ) on the 42nd day after birth. Also mouse without streptozotocin administration were prepared for comparison.
Blood sugar levels of mice in the individual groups were measured over time after the start of experiment. On the 14th day after the start of experiment, an osmotic pump containing 5,000 μg/kg of cilnidipine or the solvent only was implanted into each mouse in each group, for prolonged administration.

Experiment [8] deals with myocardial cells from the neonatal rat. Nature of the experiment: Evaluation of degree of mitochondrial division under hypoxia (MitoTracker Green FM, image analysis). The experiment is classed as cell-based. The procedure:
A system for quantitatively evaluating degree of intracellular mitochondrial division was built. More specifically, myocardial cells obtained from a neonatal rat were cultured under normoxia (20%) or under hypoxia (1%) for 16 hours. The cells were then stained with a fluorescent dye (MitoTracker Green FM, from Thermo Fisher Scientific Inc.) that selectively stains mitochondria. The cells were observed under a fluorescent microscope, and the shape of mitochondria was quantified by image analysis.
FIG. 2(c) is a graph that illustrates length of mitochondria from the myocardial cells of a neonatal rat cultured under normoxia or hypoxia. In FIG. 2(c), “Normoxia” represents results obtained from culture under the normal oxygen concentration, and “Hypoxia” represents results obtained from culture under the low oxygen concentration. […]
Each of the aforementioned compounds was added to a culture medium of the myocardial cells from the neonatal rat, so as to adjust the final concentration to 1 μM, the cells were incubated for one hour, and further cultured under hypoxic environment for 16 hours. The cells were then stained in the same way as described in Exemplary Experiment 1 using MitoTracker Green FM (from Thermo Fischer Scientific Inc.), observed under a fluorescent microscope, and the shape of mitochondria was quantified. […]

The target of another experiment is Drp1-filamin complex (Homo sapiens, UniProt O00429+P21333). Conditions: Non Patent Literature 1; cited from earlier work.
For another experiment, the system named is calcium channel. In words: Calcium channel blocking: intracellular calcium increase after potassium chloride stimulation in Neuro-2a cells (Fura 2-AM). The experiment is classed as cell-based, murine. The procedure: Effect of blocking the calcium channel by the cilnidipine derivative, synthesized in Exemplary Experiment 7, was examined. More specifically, first, Neuro-2a cells which belong to a cell line of murine neuroblastoma were cultured in serum-free culture media, and Fura 2-AM (from Dojindo Laboratories) as a calcium ion probe was added to the culture media, so as to transduce it into the cells.
The culture media were then replaced with HEPES buffered nutrient solution (pH7.4), and each of cilnidipine, and the individual compounds namely NS4-019, NS4-021, NS4-043, NS4-238, and NS4-700, synthesized in Exemplary Experiment 7, was added to the culture media so as to adjust the final concentrations to 0, 1, 10, 100, and 1,000 nM, and the culture media were incubated for 30 minutes.
Depolarizing stimulation was then given by adding potassium chloride solution (to a final concentration of 60 mM), and inflow of calcium ions into the cells was observed under a fluorescent microscope.
FIG. 12 is a graph that illustrates increase of intracellular calcium ion concentration after potassium chloride stimulation. In FIG. 12, “CIL” represents results obtained from the cells having cilnidipine added thereto, “NS4-238” represents results obtained from the cells having NS4-238 added thereto, and “**” represents presence of significant difference at p<0.01. […]
Background: Calcium flux is commonly read through the fluorescence of an indicator in the cells.

Sequence of Drp1-filamin complex (O00429 whole entry): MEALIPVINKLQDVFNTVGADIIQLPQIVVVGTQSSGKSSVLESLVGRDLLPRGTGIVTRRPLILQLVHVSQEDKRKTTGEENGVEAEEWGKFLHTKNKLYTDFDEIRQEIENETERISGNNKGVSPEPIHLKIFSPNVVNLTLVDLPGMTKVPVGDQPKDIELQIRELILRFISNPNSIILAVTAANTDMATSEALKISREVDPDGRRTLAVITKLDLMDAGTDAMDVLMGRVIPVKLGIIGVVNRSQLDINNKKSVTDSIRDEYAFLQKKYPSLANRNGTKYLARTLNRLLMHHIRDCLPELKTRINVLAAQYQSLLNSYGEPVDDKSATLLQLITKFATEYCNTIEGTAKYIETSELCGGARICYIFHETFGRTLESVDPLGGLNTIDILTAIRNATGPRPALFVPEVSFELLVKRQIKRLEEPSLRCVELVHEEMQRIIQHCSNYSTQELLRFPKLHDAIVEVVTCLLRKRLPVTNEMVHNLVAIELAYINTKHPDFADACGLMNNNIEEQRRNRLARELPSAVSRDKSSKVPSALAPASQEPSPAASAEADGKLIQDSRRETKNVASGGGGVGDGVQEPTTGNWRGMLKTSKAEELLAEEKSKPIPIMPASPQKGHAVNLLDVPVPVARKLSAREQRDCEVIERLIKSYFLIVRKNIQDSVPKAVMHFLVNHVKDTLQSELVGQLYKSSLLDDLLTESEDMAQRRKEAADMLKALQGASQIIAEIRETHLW
Sequence of Drp1-filamin complex (P21333 whole entry): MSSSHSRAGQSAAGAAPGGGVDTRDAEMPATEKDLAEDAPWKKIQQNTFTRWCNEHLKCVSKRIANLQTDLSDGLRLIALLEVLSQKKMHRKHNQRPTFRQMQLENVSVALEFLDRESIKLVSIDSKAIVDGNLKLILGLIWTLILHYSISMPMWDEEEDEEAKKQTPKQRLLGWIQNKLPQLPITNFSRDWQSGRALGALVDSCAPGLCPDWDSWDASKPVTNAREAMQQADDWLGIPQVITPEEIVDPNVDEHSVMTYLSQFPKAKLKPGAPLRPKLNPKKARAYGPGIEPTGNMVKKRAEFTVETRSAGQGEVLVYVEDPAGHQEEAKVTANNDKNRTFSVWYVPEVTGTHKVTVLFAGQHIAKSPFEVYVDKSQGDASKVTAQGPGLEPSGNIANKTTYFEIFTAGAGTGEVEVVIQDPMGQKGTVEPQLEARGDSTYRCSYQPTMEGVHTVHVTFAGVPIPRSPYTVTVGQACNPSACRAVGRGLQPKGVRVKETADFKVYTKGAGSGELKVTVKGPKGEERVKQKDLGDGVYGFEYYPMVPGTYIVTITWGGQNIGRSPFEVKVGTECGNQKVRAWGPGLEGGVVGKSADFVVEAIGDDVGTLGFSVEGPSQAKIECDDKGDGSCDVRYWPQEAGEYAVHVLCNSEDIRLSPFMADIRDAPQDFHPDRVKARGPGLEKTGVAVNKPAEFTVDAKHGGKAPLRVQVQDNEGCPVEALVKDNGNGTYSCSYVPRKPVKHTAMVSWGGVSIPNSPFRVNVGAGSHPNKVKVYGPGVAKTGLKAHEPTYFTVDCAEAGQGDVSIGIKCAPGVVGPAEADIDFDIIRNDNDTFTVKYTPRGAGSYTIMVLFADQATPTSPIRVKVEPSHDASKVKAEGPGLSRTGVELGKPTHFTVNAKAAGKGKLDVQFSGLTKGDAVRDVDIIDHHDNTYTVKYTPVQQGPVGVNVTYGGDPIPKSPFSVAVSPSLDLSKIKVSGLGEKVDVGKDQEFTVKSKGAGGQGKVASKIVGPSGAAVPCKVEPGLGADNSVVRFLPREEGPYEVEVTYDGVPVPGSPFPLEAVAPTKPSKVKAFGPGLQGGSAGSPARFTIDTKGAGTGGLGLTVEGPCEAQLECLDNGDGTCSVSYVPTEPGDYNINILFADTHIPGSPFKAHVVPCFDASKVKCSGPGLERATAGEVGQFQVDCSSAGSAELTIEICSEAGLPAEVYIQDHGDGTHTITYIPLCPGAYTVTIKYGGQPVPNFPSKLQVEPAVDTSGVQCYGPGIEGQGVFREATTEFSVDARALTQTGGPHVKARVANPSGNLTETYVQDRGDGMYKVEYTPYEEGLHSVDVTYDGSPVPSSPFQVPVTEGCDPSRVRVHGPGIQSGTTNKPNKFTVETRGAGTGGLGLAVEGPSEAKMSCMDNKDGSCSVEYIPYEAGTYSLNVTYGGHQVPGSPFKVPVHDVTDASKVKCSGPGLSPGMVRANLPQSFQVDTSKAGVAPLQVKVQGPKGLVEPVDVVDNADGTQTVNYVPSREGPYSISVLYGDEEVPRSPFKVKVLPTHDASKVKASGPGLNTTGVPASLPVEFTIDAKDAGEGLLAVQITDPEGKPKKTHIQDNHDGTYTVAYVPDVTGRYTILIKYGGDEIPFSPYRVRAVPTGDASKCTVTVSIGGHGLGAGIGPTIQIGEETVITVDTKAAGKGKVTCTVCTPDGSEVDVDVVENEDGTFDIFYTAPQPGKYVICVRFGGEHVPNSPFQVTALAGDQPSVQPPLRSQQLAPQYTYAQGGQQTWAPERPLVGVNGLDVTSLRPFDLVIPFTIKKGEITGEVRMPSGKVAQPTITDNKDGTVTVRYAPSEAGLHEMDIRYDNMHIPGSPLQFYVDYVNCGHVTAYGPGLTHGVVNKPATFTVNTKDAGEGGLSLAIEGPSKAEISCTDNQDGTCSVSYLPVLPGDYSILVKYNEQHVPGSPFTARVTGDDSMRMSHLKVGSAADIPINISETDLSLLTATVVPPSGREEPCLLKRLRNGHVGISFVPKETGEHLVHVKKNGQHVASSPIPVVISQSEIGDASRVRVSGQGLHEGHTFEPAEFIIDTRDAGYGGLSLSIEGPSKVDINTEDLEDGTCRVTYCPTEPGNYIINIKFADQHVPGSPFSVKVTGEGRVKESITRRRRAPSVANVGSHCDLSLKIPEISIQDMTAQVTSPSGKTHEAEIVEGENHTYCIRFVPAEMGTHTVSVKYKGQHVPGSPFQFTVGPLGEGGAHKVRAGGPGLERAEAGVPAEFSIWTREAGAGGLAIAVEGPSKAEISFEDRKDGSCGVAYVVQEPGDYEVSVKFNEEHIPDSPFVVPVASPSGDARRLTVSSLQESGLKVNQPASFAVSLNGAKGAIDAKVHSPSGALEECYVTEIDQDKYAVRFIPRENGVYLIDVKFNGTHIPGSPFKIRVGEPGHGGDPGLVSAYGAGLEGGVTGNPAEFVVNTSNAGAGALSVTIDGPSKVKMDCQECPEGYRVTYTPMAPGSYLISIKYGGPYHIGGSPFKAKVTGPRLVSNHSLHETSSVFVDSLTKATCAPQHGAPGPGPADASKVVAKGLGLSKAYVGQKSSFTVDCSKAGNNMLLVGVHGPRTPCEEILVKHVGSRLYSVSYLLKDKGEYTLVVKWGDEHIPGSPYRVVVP

For the compound `COCCOC(=O)C1=C(C)NC(C)=C(C(=O)OC/C=C/c2ccccc2)C1c1cccc([N+](=O)[O-])c1` (stereo not drawn) [cilnidipine], the “percentage of blood HbA1c” value in experiment [1] was “significant decrease of HbA1c”. The survival rate result is listed as “significant elongation of lifetime” in [2] and “significant increase of the survival rate” in experiment [6]. Besides, the “average length of mitochondrial fragments (suppression of mitochondrial division)” value in experiment [3] and in [5] was “could not suppress mitochondrial division” in each case. The “percentage of p53 accumulating cells relative to α-actinin-positive cells (aging of myocardial cell)” value in experiment [4] was “suppressive effects over aging of myocardial cell”. Besides, in [7], the blood sugar level result was “blood sugar level getting closer to the normal level”. For the same compound, the “percentage of cells having vesicular mitochondria (suppression of mitochondrial division)” value in experiment [8] (Exemplary Experiment 2, 1 μM, hypoxic environment 16 hours, FIG. 3) was “significantly suppress mitochondrial division”; in experiment [8] (Exemplary Experiment 11, 1 μM, hypoxic environment 18 hours, FIG. 11), “significantly suppress mitochondrial division”. Further, the “inhibition of formation of the Drp1-filamin complex” value at Drp1-filamin complex is reported as “inhibits formation of the Drp1-filamin complex”. Also, the “blocking effect on the calcium channel (ΔRatio, increase of intracellular calcium ion concentration)” value in the experiment on calcium channel (Exemplary Experiment 12, 0, 1, 10, 100, and 1,000 nM, 30 minutes, 60 mM potassium chloride, FIG. 12) is recorded as “showed blocking effects exerted on the calcium channel”. Also, in the experiment with calcium channel (Exemplary Experiment 15, at 1000 nM, FIG. 15), the “blocking effect on the calcium channel (ΔRatio)” value is recorded as “showed blocking effects on the calcium channel”.
